Results from PMC6934184, “Selective DNA-PKcs inhibition extends the therapeutic index of localized radiotherapy and chemotherapy” (The Journal of Clinical Investigation, 2019).

Biological target: T1, KIT D820E (Homo sapiens, UniProt P10721, D820E)
T1 construct: purchased Thermo Fisher Scientific (Life Technologies) SelectScreen
Assay: SelectScreen LanthaScreen
Format: binding
Details: read-out: % displacement
Procedure, shortened: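 NU5455 was profiled across the SelectScreen Broad panel of kinase activity and binding assays. Z'LYTE reactions such as CSF1R ran at apparent Km ATP, while the Adapta CAMK1 assay used ATP listed as 10. Values are given as percent.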

T1 sequence (P10721 26-976 D820E): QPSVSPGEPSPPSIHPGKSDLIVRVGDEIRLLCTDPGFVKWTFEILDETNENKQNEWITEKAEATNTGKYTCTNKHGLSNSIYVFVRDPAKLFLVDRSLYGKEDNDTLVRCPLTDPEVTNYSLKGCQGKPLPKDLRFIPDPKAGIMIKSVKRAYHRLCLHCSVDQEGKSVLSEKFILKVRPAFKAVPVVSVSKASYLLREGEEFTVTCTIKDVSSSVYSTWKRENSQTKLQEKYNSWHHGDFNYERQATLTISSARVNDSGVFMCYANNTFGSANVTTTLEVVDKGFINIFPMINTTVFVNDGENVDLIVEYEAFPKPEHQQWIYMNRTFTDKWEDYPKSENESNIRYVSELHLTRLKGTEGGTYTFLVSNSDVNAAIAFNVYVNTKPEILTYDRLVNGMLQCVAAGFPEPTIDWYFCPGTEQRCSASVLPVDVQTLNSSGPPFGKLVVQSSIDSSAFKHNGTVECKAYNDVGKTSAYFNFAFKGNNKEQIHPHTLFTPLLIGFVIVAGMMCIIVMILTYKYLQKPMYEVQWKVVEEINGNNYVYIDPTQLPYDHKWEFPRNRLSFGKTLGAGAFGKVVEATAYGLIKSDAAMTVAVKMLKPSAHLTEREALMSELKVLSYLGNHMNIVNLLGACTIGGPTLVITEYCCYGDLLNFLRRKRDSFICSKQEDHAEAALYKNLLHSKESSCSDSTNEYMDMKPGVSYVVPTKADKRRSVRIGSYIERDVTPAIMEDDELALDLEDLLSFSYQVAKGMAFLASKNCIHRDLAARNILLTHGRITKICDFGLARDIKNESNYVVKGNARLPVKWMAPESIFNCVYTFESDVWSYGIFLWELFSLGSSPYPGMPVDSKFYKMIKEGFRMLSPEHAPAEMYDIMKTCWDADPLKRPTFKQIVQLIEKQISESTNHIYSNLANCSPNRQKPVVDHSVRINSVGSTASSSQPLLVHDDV

Work on `CN(C(=O)CN1CCOCC1)c1ccc2sc3c(-c4cccc5c(=O)cc(N6CC7CCC(C6)O7)oc45)cccc3c2c1` [NU5455] yielded an inhibition at 1 µM of 1.3%.
